Measurements taken from paper PMC12337281, “mTORC1-selective inhibitors rescue cellular phenotypes in TSC iPSC-derived neurons” (Frontiers in Neuroscience, 2025).

Tested on: TSC2–/– iPSC-derived neurons
Experiment: MEA weighted mean firing rate in TSC2–/– iPSC-derived neurons
Type: cell-based, human
Source text: TSC2^–/– iPSC-derived cortical neurons were differentiated in two to three replicate batches, defined as independent plating of starting material iPSCs and use of reagents to differentiate iPSCs into neurons. The NGN2-induced cortical neurons were differentiated following previously published methods ([Winden et al., 2019]; [Zhang et al., 2013]) that are also described here. To establish a line of iPSCs expressing the NGN2 vector, on differentiation day - 2, iPSCs were dissociated with Accutase (Innovative Cell Technologies #AT104) and plated as single cells at 90,000 cells/cm^2 in mTeSR-1 media supplemented with 10 μM ROCK inhibitor (Y-27631, Cayman Chemical #10005583), on Geltrex-coated 12-well plates. While iPSCs were routinely cultured with StemFlex (as noted above), the NGN2 differentiation was optimized with mTeSR-1 media, so the switch was made to this media prior to initiating differentiation. One day after re-plating as single cells, on differentiation day - 1, iPSCs were transduced with lentiviral vectors expressing NGN2 and rtTA and 8 μg/ml polybrene (Sigma-Aldrich #TR-1003-G). The lentiviral particles were produced and concentrated at the Viral Core at Boston Children’s Hospital and were added to the culture at an MOI of 5 for each vector. Both plasmids are available at Addgene with the following IDs: 52047 and 20342. […]

For `CO[C@H]1C[C@@H]2CC[C@@H](C)[C@@](O)(O2)C(=O)C(=O)N2CCCC[C@H]2C(=O)O[C@H]([C@H](C)C[C@@H]2CC[C@@H](O)[C@H](OC)C2)CC(=O)[C@H](C)/C=C(\C)[C@@H](O)[C@@H](OC)C(=O)[C@H](C)C[C@H](C)/C=C/C=C/C=C/1C` [Rapamycin, rapamycin], the IC50 (Homo sapiens, Neuron, day 23, after 2 weeks treatment until day 21, replicate batch #1) was 0.015 nM and the “Dose at which WMFR was lowered” value (during the 2 weeks treatment window, vs DMSO) was greater than 0.1 nM.
